Key:
CB2 receptor = conditions: intraperitoneal administration; cited from earlier work
[1] = system: human-derived keratinocyte, HaCaT; assay: IL-1b release from HaCaT under poly (I:C)-induced allergic contact dermatitis conditions (ELISA); format: cell-based; conditions: 10 μM, poly (I:C) 15 ng/ml, 24 hours
Experimental: First, a human-derived keratinocyte, HaCaT, was dispensed in a 24-well plate together with a Dulbecco's modified eagle's medium (DMEM) containing 10% fetal bovine serum (FBS), and cultured at 37° C. under 5% CO2 culture conditions for 24 hours. Afterwards, while inducing allergic contact dermatitis conditions to the HaCat with 15 ng/ml of poly (I:C), each of Example 1 (hydroxy-α-sanshool) and Example 2 (hydroxy-γ-sanshool), which were each dissolved in dimethyl sulfoxide (DMSO), were treated at 10 μM and dissolved in the medium. After 24 hours, each medium was collected, and IL-1b ELISA kit (R&D systems) was used to measure an amount of cytokine IL-1b according to a manufacturer's method.

[2] = system: normal human epidermal cells, keratinocyte; assay: β-endorphin secretion from normal human epidermal keratinocytes (β-endorphin EIA kit); format: cell-based; conditions: for amount of β-endorphin secreted from keratinocyte: 10 μM, six hours, compared to control group (FIG. 1, FIG. 2); for β-endorphin production effect: six hours (FIG. 3)
Experimental: First, normal human epidermal cells, keratinocyte (Gibco), were cultured from a 6-well plate to a confluence point at 37° C. under 5% CO2 culture conditions. In an embodiment of the present disclosure, a keratinocyte-SFM (Gibco) medium was treated with 10 μM of each of hydroxy-α-sanshool (CHEMFACES®; Example 1), hydroxy-γ-sanshool (Chengdu Biopurify Phytochemicals Ltd.; Example 2), hydroxy-β-sanshool (Chengdu Biopurify Phytochemicals Ltd.; Example 3), hydroxy-ε-sanshool (Chengdu Biopurify Phytochemicals Ltd.; Example 4), cannabidiol (CBD) (Sigma-Aldrich®; Comparative Example 1), honokiol (Sigma-Aldrich®; Comparative Example 2), magnolol (Sigma-Aldrich®; Comparative Example 3), and palmitoylethanolamide (PEA) (Sigma-Aldrich®; Comparative Example 4), which are known as CB2 agonists as Comparative Examples, and cultured at 37° C. for six hours under 5% CO2 culture conditions. Afterwards, each medium was collected, and a β-endorphin EIA kit (EK-022-14, Phoenix pharmaceuticals, Belmont, Calif.) was used to quantify an amount of β-endorphin secreted from keratinocyte in each medium. Student t-test was used for statistical significance between specimens, and when a value of p-value is less than or equal to 0.05, it was analyzed as statistically significant. (*p<0.05, **p<0.01, ***p<0.001)
First, normal human epidermal cells, keratinocyte (Gibco), were cultured from a 6-well plate to a confluence point at 37° C. under 5% CO2 culture conditions. […] Afterwards, each medium was collected, and a β-endorphin EIA kit (EK-022-14, Phoenix pharmaceuticals, Belmont, Calif.) was used to quantify an amount of β-endorphin secreted from keratinocyte in each medium. Student t-test was used for statistical significance between specimens, and when a value of p-value is less than or equal to 0.05, it was analyzed as statistically significant. (*p<0.05, **p<0.01, ***p<0.001)

[3] = sanshool-containing drug ingested; cited from earlier work

Row | Compound | IL-1b [1] [pg/mL] | amount of β-endorphin secreted from keratinocyte [2] | further results
1 | CN1CCCCC1Cn1cc(C(=O)c2cc([N+](=O)[O-])ccc2I)c2ccccc21 (centres unmarked) [AM1241] |  |  | endorphin secretion (CB2 receptor): had an effect on inducing endorphin secretion
2 | C/C=C/C=C/C=C\CC/C=C/C(=O)NCC(C)(C)O [Example 1, hydroxy-α-sanshool] | 11.29 |  | 
3 | C/C=C/C=C/C=C\CC/C=C/C=C/C(=O)NCC(C)(C)O [Example 2, hydroxy-γ-sanshool] | 11.2 |  | 
4 | C=CCc1ccc(O)c(-c2ccc(O)c(CC=C)c2)c1 [honokiol, reference compound] |  | further decrease in an amount of β-endorphin secretion compared to a control group | 
5 | C=CCc1ccc(O)c(-c2cc(CC=C)ccc2O)c1 [magnolol, reference compound] |  | further decrease in an amount of β-endorphin secretion compared to a control group | 
6 | sanshool |  |  | β-endorphin production effect ([2]; 0.00006 wt %): β-endorphin production effect was not shown; β-endorphin production effect ([2]; 0.006 wt % as printed): production of β-endorphin was induced; presence in plasma [3]: remained in plasma

Source: patent US20220241168A1, “COMPOSITION FOR STIMULATING BETA-ENDORPHIN PRODUCTION COMPRISING SANSHOOL” (AMOREPACIFIC CORPORATION, priority 2021, published 2022)
